Experimental data taken from ChEMBL document CHEMBL3507680, “University of Dundee, Gates Library screen for HepG2 cell viability”.

Assay: Human HepG2 cell viability assay in 384 well format
Type: toxicity, cell-based
Parameters: dose 125 nL, time 70.5 hour; cytotoxicity at 70.5 h: concentration not given beside the values
Settings: HepG2 cells, read-out: Inhibition

With `CCC1(CC)Cc2ccccc2-c2nc(NCCCO)[nH]c(=O)c21` as the molecule, how does the cytotoxicity at 70.5 h read?
Its cytotoxicity at 70.5 h is -14.8%.

For `CCC1(C)Cc2ccccc2-c2nc(NCCCO)nc(O)c21` (centres undefined), which cytotoxicity at 70.5 h is on record?
Its cytotoxicity at 70.5 h is -4.42%.

With `CNC(=O)C1Cn2ccnc2C2(CCN(c3ccc(C)nn3)CC2)O1` (centres undefined) as the molecule, how does the cytotoxicity at 70.5 h read?
The cytotoxicity at 70.5 h was -0.593%.

For `Cc1nc(CN2CCO[C@H]3CN(C(=O)c4cscn4)C[C@H]32)cs1`, which cytotoxicity at 70.5 h is on record?
Its cytotoxicity at 70.5 h is -5.86%.

Which cytotoxicity at 70.5 h does the source give for `COCC1CC2(CCN(C(=O)c3ccc(F)cc3C)CC2)CO1` (centres undefined) here?
Its cytotoxicity at 70.5 h is -2.86%.

With `Cc1nc(CN2CC[C@H]3C[C@H](c4ccncn4)O[C@@H]3C2)cs1` as the molecule, how does the cytotoxicity at 70.5 h read?
Its cytotoxicity at 70.5 h is -3.68%.

For `CNC(=O)C1Cn2ccnc2C2(CCN(C(=O)c3ccccn3)CC2)O1` (centres undefined), which cytotoxicity at 70.5 h is on record?
Its cytotoxicity at 70.5 h is -2.1%.

With `Cc1ccc(C(=O)N2C[C@@H]3C[C@@H](c4nnc(C5CC5)o4)O[C@@H]3C2)s1` as the molecule, how does the cytotoxicity at 70.5 h read?
Its cytotoxicity at 70.5 h is -3.56%.

For `O=C(c1ncccn1)N1C[C@@H]2COC[C@]2(COCc2cccnc2)C1`, which cytotoxicity at 70.5 h is on record?
Its cytotoxicity at 70.5 h is -5.13%.

With `O=C(O)c1nnn(-c2ccccc2F)c1-c1ccncc1` as the molecule, how does the cytotoxicity at 70.5 h read?
The cytotoxicity at 70.5 h was 5.16%.

For `O=C(O)c1nnn(-c2ccccc2)c1-c1ccncc1`, which cytotoxicity at 70.5 h is on record?
The cytotoxicity at 70.5 h was -30.6%.

With `COc1ccc(N2CCN(CC(O)c3ccc(C)cc3C)CC2)cc1` (centres undefined) as the molecule, how does the cytotoxicity at 70.5 h read?
Its cytotoxicity at 70.5 h is -3.49%.

For `CN1CCc2c(C#N)c(NCCc3ccccc3)n3cnnc3c2C1`, which cytotoxicity at 70.5 h is on record?
The cytotoxicity at 70.5 h was -12.4%.

For `NC(=O)c1ccc(NC(=O)Cn2cc(I)cn2)cc1`, which cytotoxicity at 70.5 h is on record?
Its cytotoxicity at 70.5 h is -13.1%.

For `O=C(Cn1ccc2cc(Br)ccc21)NCc1ccc(C(=O)O)cc1`, which cytotoxicity at 70.5 h is on record?
Its cytotoxicity at 70.5 h is -27.5%.

With `O=C(CCn1ccc2ccc(Br)cc21)NCc1ccc(C(=O)O)cc1` as the molecule, how does the cytotoxicity at 70.5 h read?
Its cytotoxicity at 70.5 h is -21.2%.

With `O=C(COc1coc(CN2CCSCC2)cc1=O)c1ccccc1` as the molecule, how does the cytotoxicity at 70.5 h read?
Its cytotoxicity at 70.5 h is -24.2%.

Which cytotoxicity at 70.5 h does the source give for `O=C(Cn1ccc2ccc(Cl)cc21)NCc1ccc(C(=O)O)cc1` here?
The cytotoxicity at 70.5 h was -2.47%.

For `COCCNc1c(C#N)c2c(c3nncn13)CN(C)CC2`, which cytotoxicity at 70.5 h is on record?
Its cytotoxicity at 70.5 h is -5.01%.

With `CCOc1ccc(NC(=O)Cn2cc(I)cn2)cc1` as the molecule, how does the cytotoxicity at 70.5 h read?
The cytotoxicity at 70.5 h was -18.2%.

For `CCOC(=O)c1ccc(NC(=O)Cn2cc(I)cn2)cc1`, which cytotoxicity at 70.5 h is on record?
The cytotoxicity at 70.5 h was -4.39%.

With `N#CCc1ccc(NC(=O)Cn2cc(I)cn2)cc1` as the molecule, how does the cytotoxicity at 70.5 h read?
Its cytotoxicity at 70.5 h is -9.71%.

For `Cc1nc(-c2ccccc2)cc2nn(CC(N)=O)c(=O)n12`, which cytotoxicity at 70.5 h is on record?
Its cytotoxicity at 70.5 h is -2.53%.

With `CCN(CC)C(=O)Cn1c(-c2ccc(Cl)cc2)nc(C)c(CCO)c1=O` as the molecule, how does the cytotoxicity at 70.5 h read?
Its cytotoxicity at 70.5 h is 0.81%.

For `CC/N=c1\nc(NCC)nc2n1C(O)(Nc1cccc(C)c1C)CS2` (centres undefined), which cytotoxicity at 70.5 h is on record?
Its cytotoxicity at 70.5 h is -6.29%.

With `COc1ccc(-c2cc3nn(CC(N)=O)c(=O)n3c(C)n2)cc1` as the molecule, how does the cytotoxicity at 70.5 h read?
Its cytotoxicity at 70.5 h is -7.26%.

For `Cc1nc(-c2ccc(Cl)cc2)n(CC(=O)NC(C)C)c(=O)c1CCO`, which cytotoxicity at 70.5 h is on record?
Its cytotoxicity at 70.5 h is -8.99%.

With `COc1ccc(-c2cc3nn(CC(=O)NC(C)C)c(=O)n3c(C)n2)cc1` as the molecule, how does the cytotoxicity at 70.5 h read?
Its cytotoxicity at 70.5 h is 1.34%.

For `O=c1[nH]nc2c(S(=O)(=O)N3CCCCCC3)cccn12`, which cytotoxicity at 70.5 h is on record?
Its cytotoxicity at 70.5 h is -7.77%.

Which cytotoxicity at 70.5 h does the source give for `O=c1[nH]nc2c(S(=O)(=O)N3CCCCC3)cccn12` here?
Its cytotoxicity at 70.5 h is -0.253%.

With `CSc1nc2ncc3c(=O)n(C)ccc3n2n1` as the molecule, how does the cytotoxicity at 70.5 h read?
The cytotoxicity at 70.5 h was -8.16%.

With `CCCc1nnc2sc(-c3cc(C(C)C)n[nH]3)nn12` as the molecule, how does the cytotoxicity at 70.5 h read?
Its cytotoxicity at 70.5 h is 15.4%.

Which cytotoxicity at 70.5 h does the source give for `c1ccc(-c2nnc3sc(CCN4CCCCCC4)nn23)cc1` here?
The cytotoxicity at 70.5 h was -11.1%.

With `c1ccc2c(c1)COC1(CCCCC1)N2` as the molecule, how does the cytotoxicity at 70.5 h read?
The cytotoxicity at 70.5 h was -4.51%.

Which cytotoxicity at 70.5 h does the source give for `CN1CCc2c(C#N)c(NCC3CCCO3)n3cnnc3c2C1` (centres undefined) here?
Its cytotoxicity at 70.5 h is -5.45%.

Which cytotoxicity at 70.5 h does the source give for `CCOc1ccc(Cl)cc1C1CCCCN1` (centres undefined) here?
The cytotoxicity at 70.5 h was -17.3%.

Which cytotoxicity at 70.5 h does the source give for `CS(=O)(=O)N1CC[C@]2(C[C@@H](Oc3ccccn3)CO2)C1` here?
Its cytotoxicity at 70.5 h is -3.36%.

Which cytotoxicity at 70.5 h does the source give for `CS(=O)(=O)N1CCC2(CC1)CC(Oc1ccccn1)CO2` (centres undefined) here?
Its cytotoxicity at 70.5 h is -3.34%.

For `Cc1ccc(C(=O)N2CCO[C@H]3[C@H](OCCN(C)C)CC[C@@H]32)o1`, which cytotoxicity at 70.5 h is on record?
Its cytotoxicity at 70.5 h is -4.42%.

For `Cc1ccc(CN2CCOCC3(C2)CN(c2ccc(C)s2)C(=O)CO3)o1` (centres undefined), which cytotoxicity at 70.5 h is on record?
The cytotoxicity at 70.5 h was 0.222%.

With `COCCN1C[C@@H]2CN(Cc3ccoc3)CCC[C@]2(C(=O)O)C1` as the molecule, how does the cytotoxicity at 70.5 h read?
Its cytotoxicity at 70.5 h is -1.11%.

With `O=C1COC2(COCCN(Cc3cccnc3)C2)CN1c1ccccc1` (centres undefined) as the molecule, how does the cytotoxicity at 70.5 h read?
Its cytotoxicity at 70.5 h is -0.932%.

Which cytotoxicity at 70.5 h does the source give for `O=C(CN(C1=NCCCCC1)c1ccc(Cl)cc1)c1ccccc1` here?
The cytotoxicity at 70.5 h was 10.9%.

For `Cc1cccc(N(CC(=O)c2ccccc2)C2=NCCCCC2)c1`, which cytotoxicity at 70.5 h is on record?
Its cytotoxicity at 70.5 h is -11.4%.
